Where two headings read alike, the source gives them in different places.
Columns and labels:
[1] = Cell viability in keratinocyte CCL2 assay (assay number 1243); assay type: cell-based, human; conditions: human
Source text: (§1) • 1. Determination of inhibition of CCL2 release from IL-4, IL-13, IL-22 and IFN-γ-stimulated primary human keratinocytes [assay number 1280] and determination of the effect on cell viability [assay number 1243]. • 2. Determination of inhibition of IL-8 release from IL-17A and TNFα-induced primary human keratinocytes [assay number 1250] and determination of the effect on cell viability [assay number 1244]. • 3. Determination of inhibition of IL-17A secretion from human PBMC stimulated with antiCD3/antiCD28-coated beads [assay number 1321] and determination of the effect on cell viability [assay number 1322]. • 4. Determination of inhibition of IL-4 and IL-2 secretion from human CD4-positive T-cells stimulated with antiCD2/antiCD3/antiCD28-coated beads [assay number 1297, 1298] and determination of the effect on cell viability [assay number 1299].

[2] = tested on: primary human keratinocytes; assay: as above; assay type: cell-based; conditions: Homo sapiens
Source text: as §1

[3] = Cell viability in keratinocyte IL-8 assay (assay number 1244); assay type: cell-based, human; conditions: human, primary human keratinocytes induced with IL-17A and TNFα
Source text: as §1

[4] = tested on: primary human keratinocytes; assay: as above; assay type: cell-based; conditions: Homo sapiens
Source text: as §1

[5] = Cell viability in PBMC IL-17 assay (assay number 1322); assay type: cell-based, human; conditions: human
Description: (§2) The inflammatory skin disease psoriasis is characterized by cytokines IL-17A and TNFα. In the present assay, human peripheral blood mononuclear cells (PBMC) are stimulated with beads coated with antibodies against CD3 and CD28 to activate the T-cell receptor, and stimulated with IL-23 to promote T-helper17 activity. The cells are incubated for three days, then the secreted level of IL-17A is measured in the culture supernatant using AlphaLISA and the amount of living cells is measured by addition of resazurin (PrestoBlue®) to identify compounds that inhibit cell proliferation or viability. […] Compounds which inhibit IL-17A secretion may be expected to have efficacy in psoriasis.
(§3) • IL-17A concentration in the supernatants is measured using an alphaLISA kit (Perkin Elmer, cat no. AL219F). • Pretest to find optima dilution of samples: Test 5 μL supernatant from control wells and run IL-17A alphaLISA assay with only 2 hours of incubation. • When data are available, remove assay plates from incubation and equilibrate to room temperature for 30 minutes. • Transfer 5 μL or corrected amounts of supernatant to a 384-proxy plate • Add 5 μL alphaLISA acceptor beads. • Incubate 1 hour at room temperature • Add 5 μL donor beads • Incubate overnight at room temperature protected from light. • Add 7 μL PrestoBlue reagent (resazurin)/well to the assay plate and incubated for 2-4 hours at 37° C./5% CO2. The fluorescence in the wells is measured (Ex615/Em 535).
(§4) The level of living cells in the wells is measured by the addition of PrestoBlue® and the conversion of Resazurin to Resorufin (fluorescent) in living cells is measured.
(§5) The effect of the test compounds on viability/proliferation is normalized to the PrestoBlue signal in the negative control wells treated with a toxic compound, Terfenadine.

[6] = tested on: human PBMC; assay: as above; assay type: cell-based; conditions: Homo sapiens
Description: as §2, §3, §4, §5

[7] = Cell viability in T-cell IL-2 & IL-4 assay (assay number 1299); assay type: cell-based, human; conditions: human, human CD4-positive T-cells
Description: (§6) Then the level of secreted of IL-4 is measured in the culture supernatant using electrochemiluminescence (MSD kits, Meso Scale Discovery), IL-2 is measured by proximity homogenous time-resolved fluorescence (HTRF) and the amount of living cells is measured by addition of resazurin (PrestoBlue®) to allow identifying compounds that inhibit T-cell proliferation or viability.
(§7) • Remove plates from incubation and equilibrate to room temperature for 30 minutes. • IL-4 concentration in 10 μL supernatant is measured using an MSD IL-4 384-plate kit (Custom made) according to manufacturer protocol. • IL-2 concentrations in the supernatant is measured by an IL-2 HTRF kit, CisBio, cat. No 62HIL02PEH. • Add 4 μL medium to white proxi 384-well plates • Add 1 μL supernatant. • Add 4 μL mHTRF mix (each diluted 1:300 in ⅔ reconstitution buffer and ⅓ assay medium). • Spin the plates for 1 minute at 170 g • Seal and incubate overnight and read fluorescence in a plate reader • The amount of viable cells is measured by PrestoBlue® reagent • Add 15 μL diluted PrestoBlue® reagent (resazurin) corresponding to 2.5 μL Prestoblue/well to the assay plate. • Incubate overnight at 37° C./5% CO2. The fluorescence in the wells is measured (Ex615/Em 535).
as §4, §5

[8] = tested on: human CD4-positive T-cells; assay: as above; assay type: cell-based; conditions: Homo sapiens, CD4 positive
Description: as §6, §7, §4, §5

[9] = maximum reduction of cell viability in CCL2 assay, read-out: Max Eff.: Viab (1243)
[10] = Keratinocyte, cell viability in CCL2 assay, read-out: Abs EC50: Viab (1243)
[11] = maximum reduction of cell viability in IL-8 assay, read-out: Max Eff.: Viab (1244)
[12] = Keratinocyte, cell viability in IL-8 assay, read-out: Abs EC50: Viab (1244)
[13] = maximum reduction of cell viability in PBMC IL-17 assay, read-out: Max Eff.: Viab (1322)
[14] = cell viability in PBMC IL-17 assay, read-out: Abs EC50: Viab (1322)
[15] = maximum reduction of cell viability in T-cell IL-2 & IL-4 assay, read-out: Max Eff.: Viab (1299)
[16] = cell viability in T-cell IL-2 & IL-4 assay, read-out: Abs EC50: Viab (1299)
[17] = keratinocyte CCL2 assay, read-out: maximum reduction of cell viability
[18] = keratinocyte CCL2 assay, read-out: EC50, cell viability
[19] = keratinocyte IL-8 assay, read-out: maximum reduction of cell viability
[20] = keratinocyte IL-8 assay, read-out: EC50, cell viability
[21] = T-cell IL-2 & IL-4 assay, read-out: maximum reduction of cell viability
[22] = T-cell IL-2 & IL-4 assay, read-out: EC50, cell viability

Row | Compound | cytotoxicity [1, 9] [%] | EC50 [2, 10] [nM] | cytotoxicity [3, 11] [%] | EC50 [4, 12] [nM] | cytotoxicity at 3 days [5, 13] [%] | EC50 [6, 14] [nM] | cytotoxicity [7, 15] [%] | EC50 [8, 16] [nM] | cytotoxicity [1, 17] [%] | EC50 [2, 18] [nM] | cytotoxicity [3, 19] [%] | EC50 [4, 20] [nM] | cytotoxicity [7, 21] [%] | EC50 [8, 22] [nM] | cytotoxicity at 3 days ([5]; PBMC IL-17 assay, read-out: maximum reduction of cell viability) [%] | EC50 ([6]; PBMC IL-17 assay, read-out: EC50, cell viability) [nM]
1 | COc1cc(/C=C/c2cc(O)cc(OC)c2CC=C(C)C)ccc1O [Compound 1, (E)-3-(4-hydroxy-3-methoxystyryl)-5-methoxy-4-(3-methylbut-2-en-1-yl)phenol] | 77 | 202 | 92 | 90 | 50 | 5000 | 35 | 5000 | – | – | – | – | – | – | – | –
2 | CCOc1cc(O)cc(/C=C/c2ccc(O)c(OC)c2)c1CC=C(C)C [Compound 8, (E)-3-Ethoxy-5-(4-hydroxy-3-methoxystyryl)-4-(3-methylbut-2-en-1-yl)phenol] | 99 | 235 | 101 | 32 | 57 | 582 | 46 | 5000 | – | – | – | – | – | – | – | –
3 | CCOc1cc(O)cc(/C=C/c2ccc(O)c(O)c2)c1CC=C(C)C [Compound 20, (E)-4-(3-Ethoxy-5-hydroxy-2-(3-methylbut-2-en-1-yl)styryl)benzene-1,2-diol] | 61 | 442 | 76 | 221 | 47 | 5000 | 15 | 5000 | – | – | – | – | – | – | – | –
4 | COc1cc(/C=C/c2cc(O)cc(OC)c2CC=C(C)C)ccc1NC=O [Compound 27, (E)-N-(4-(5-hydroxy-3-methoxy-2-(3-methylbut-2-en-1-yl)styryl)-2-methoxyphenyl)formamide] | – | 41 | – | 32 | 52 | 5000 | – | 4350 | 67 | 41 | 83 | 32 | 52 | 4350 | – | –
5 | CCOc1cc(O)cc(/C=C/c2ccc(NC=O)c(OC)c2)c1CC=C(C)C [Compound 28, (E)-N-(4-(3-Ethoxy-5-hydroxy-2-(3-methylbut-2-en-1-yl)styryl)-2-methoxyphenyl)formamide] | – | 124 | – | 35 | – | 659 | – | 2360 | 68 | 124 | 81 | 35 | 60 | 2360 | 54 | 659
6 | COc1cc(/C=C/c2cc(O)cc(OC)c2CC=C(C)C)ccc1NC(=O)CN [Compound 31, (E)-2-amino-N-(4-(5-hydroxy-3-methoxy-2-(3-methylbut-2-en-1-yl)styryl)-2-methoxyphenyl)acetamide] | 86 | 431 | 100 | 416 | 32 | 5000 | 19 | 5000 | – | – | – | – | – | – | – | –
7 | CCOc1cc(O)cc(/C=C/c2ccc(NC(=O)C(=O)O)c(OC)c2)c1CC=C(C)C [Compound 35, (E)-2-((4-(3-Ethoxy-5-hydroxy-2-(3-methylbut-2-en-1-yl)styryl)-2-methoxyphenyl)amino)-2-oxoacetic acid] | 30 | 5000 | 72 | 5000 | 18 | 5000 | 7 | 5000 | – | – | – | – | – | – | – | –

— patent publication US20260209152A1, “Substituted Hydroxystilbene Compounds and Derivatives, Synthesis and Uses Thereof” (Kynan Duke IP, LLC, priority 2019, published 2026)
